Non-standard residues stand in square brackets, D forms with d. Residues, ends and D or L forms follow the SMILES beside them. Orn = NCCC[C@H](N)C(=O)O
What was measured:
[1] = 25% (v/v) human serum in 0.1 M TRIS buffer pH 7.4, peptide 200 μM, 37 °C, 0/24/48/72 h, LC-MS UV trace vs 4-hydroxybenzoic acid internal standard, n = 3
Experimental: Human serum was diluted in 0.1 M filtered TRIS buffer pH 7.4 (50%, 1:1, v/v). Selected peptides were diluted in 0.1 M filtered TRIS buffer pH 7.4 to a concentration of 400 μM and 0.1 mg/mL 4- hydroxybenzoic acid was added as internal standard. Aliquots of peptide solution (300 μL) were added to aliquots of serum (300 μL) in sterile 1.5 mL Eppendorf tubes, to reach a peptide concentration of 200 μM and 25% (v/v) human serum during the assay. Samples, in triplicate, were incubated at 37 °C under gentle stirri ng (200 rpm). At different time points (0, 24, 48 and 72 hours), 100 μL of each sample was collected and quenched by precipitating serum proteins through the addition of (0.1 M) ZnSO4·7 H2O / ACN (1:1) (0.1 M, 100 μL) and cooling in ice bath for 10 minutes. Protein precipitates were pelleted under centrifugation (5 min at 14’000 rpm) and the supernatants were analysed by LC-MS. Peaks corresponding to the internal standard and the undegraded peptides were integrated from the area under the curves (AUC) of UV traces, with the ratio peptide/standard at t = 0 h as 100%.
Figure S7. Serum stability assay of the respective compound (200 μM), incubated with human serum (25% in TRIS buffer, 0.1 M, pH 7.4) at 37 °C. Aliquots were taken at different time (0 / 24 / 48 and 72 h). Undegraded peptide values determined by RP -HPLC analysis usi ng hydroxybenzoic acid as internal standard. Measured in triplicates and the data represent mean ± SD, n […]
(1 picture or pasted object on this page, not shown here)

human red blood cells = conditions: red cells of human, 6 h
[2] = molecular target: chaperone DnaK (His-tagged) (UniProt P0A6Y8); assay: MST; 16 two-fold dilutions of L-Onc from a maximum of 100 μM, mixed 1:1 with 40 nM His-Tag-labeled DnaK; MST buffer (50 mM TRIS, 150 mM NaCl, 10 mM MgCl2, Tween 20 0.05%); Monolith NT.115; apparent
Chain of chaperone DnaK (His-tagged) (P0A6Y8 whole entry): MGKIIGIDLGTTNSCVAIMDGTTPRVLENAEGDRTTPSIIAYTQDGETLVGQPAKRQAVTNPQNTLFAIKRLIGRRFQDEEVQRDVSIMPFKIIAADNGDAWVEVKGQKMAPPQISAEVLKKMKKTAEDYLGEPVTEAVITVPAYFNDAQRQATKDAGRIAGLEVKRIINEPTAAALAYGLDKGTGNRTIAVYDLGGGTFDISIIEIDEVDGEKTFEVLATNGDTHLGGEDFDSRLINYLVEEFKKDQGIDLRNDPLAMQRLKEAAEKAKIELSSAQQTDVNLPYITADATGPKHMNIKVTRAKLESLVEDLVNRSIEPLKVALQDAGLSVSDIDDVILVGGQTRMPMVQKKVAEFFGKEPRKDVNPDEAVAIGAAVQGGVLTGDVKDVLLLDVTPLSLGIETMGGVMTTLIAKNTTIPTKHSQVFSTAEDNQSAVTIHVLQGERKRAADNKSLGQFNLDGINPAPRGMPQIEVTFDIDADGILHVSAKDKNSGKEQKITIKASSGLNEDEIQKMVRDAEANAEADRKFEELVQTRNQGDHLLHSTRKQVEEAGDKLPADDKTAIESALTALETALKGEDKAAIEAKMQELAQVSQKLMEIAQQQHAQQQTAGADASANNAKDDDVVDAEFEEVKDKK

Row | Kd [2] | Compound | Serum stability (undegraded peptide) [1] | MHC human red blood cells (human red blood cells)
1 | – | CC[C@H](C)[C@H](NC(=O)[C@H](CCCN)NC(=O)[C@H](CCCNC(=N)N)NC(=O)[C@@H]1CCCN1C(=O)[C@@H]1CCCN1C(=O)[C@H](CCCNC(=N)N)NC(=O)[C@@H]1CCCN1C(=O)[C@H](CCCNC(=N)N)NC(=O)[C@@H]1CCCN1C(=O)[C@H](CC(C)C)NC(=O)[C@H](Cc1ccc(O)cc1)NC(=O)[C@@H]1CCCN1C(=O)[C@@H]1CCCN1C(=O)[C@H](CCCCN)NC(=O)[C@H](CC(=O)O)NC(=O)[C@@H](N)C(C)C)C(=O)N[C@@H](Cc1ccc(O)cc1)C(=O)N[C@@H](CC(N)=O)C(=O)N[C@@H](CCCN)C(N)=O [Onc72] (H-VDKPPYLPRPRPPR[Orn]IYN[Orn]-NH2) | essentially stable to degradation over 24 h | >1000 µg/mL
2 | 30 µM | oncocin (L-oncocin) (peptide) | – | –
